Activity calls are given as the source filed them. The rule behind the calls is not given here.
Legend:
[1] = Anti-MDR activity in human MCF7-DOX cells assessed as reversal of cell resistance to doxorubicin by measuring reversal fold at 10 uM measured after 48 hrs by MTT assay; type: functional
[2] = tested on: RAW264.7; test: Inhibition of NO production in LPS-stimulated mouse RAW264.7 cells; type: functional, cell-based
[3] = Anti-MDR activity in human MCF7-DOX cells assessed as reversal of cell resistance to doxorubicin by measuring reversal fold at 30 uM measured after 48 hrs by MTT assay; type: functional
[4] = Cytotoxicity against human MCF7-DOX cells measured after 48 hrs by MTT assay; type: cell-based

COc1ccc(CCN(C)CCCC(C#N)(c2ccc(OC)c(OC)c2)C(C)C)cc1OC (stereo not drawn) [VERAPAMIL]
fold change (FC) [1]: 9.2

C/C=C(\C)C(=O)O[C@H]1C[C@@H](OC(C)=O)[C@@]2(C)CO[C@H]3[C@@H](O)[C@@]4(C)C5=C(C)[C@H](c6ccoc6)C[C@@H]5OCC[C@@H]4[C@]1(C)[C@@H]32
fold change (FC) [1]: 2.7 | inhibition [2]: inactive | fold change (FC) [3]: 5.2 | Activity [4]: Non-Toxic

C/C=C(\C)C(=O)O[C@H]1C[C@@H](OC(C)=O)[C@@]2(C)CO[C@H]3[C@H]4O[C@]5(C)[C@H]6C[C@H](O[C@@H]7OC=C[C@@]76O)[C@]5(O)[C@@]4(C)[C@H](C(=O)CO)[C@]1(C)[C@@H]32
inhibition [2]: inactive | Activity [4]: Non-Toxic

C/C=C(\C)C(=O)O[C@H]1C[C@@H](OC(C)=O)[C@@]2(C)CO[C@H]3[C@@H](O)[C@@]4(C)C5=C(C)[C@H](c6ccoc6)C[C@@H]5O[C@@H](OC)C[C@@H]4[C@]1(C)[C@@H]32
inhibition [2]: inactive | Activity [4]: Non-Toxic

C/C=C(\C)C(=O)O[C@H]1C[C@@H](OC(C)=O)[C@@]2(C)CO[C@H]3[C@@H](O)[C@@]4(C)C5=CC[C@@H](c6ccoc6)[C@]5(C)OCC[C@@H]4[C@]1(C)[C@@H]32
inhibition [2]: inactive | Activity [4]: Non-Toxic

C/C=C(\C)C(=O)O[C@@H]1C[C@H](OC(C)=O)[C@]23CO[C@H](CO)[C@H]2[C@](C)([C@]24O[C@@]2(C)[C@H]2C[C@@H]4O[C@@H]4O[C@H](OCC)C[C@@]42O)[C@H](O)[C@@H]2OC[C@@]1(C(=O)OC)[C@H]23
inhibition [2]: inactive | Activity [4]: Non-Toxic

C/C=C(\C)C(=O)O[C@H]1C[C@@H](OC(C)=O)[C@@]2(C)CO[C@H]3[C@@H](O)[C@]4(C)[C@H](C[C@@H]5O[C@H]6CC(c7ccoc7)=C(C)[C@@]64O5)[C@]1(C)[C@@H]32
inhibition [2]: inactive | Activity [4]: Non-Toxic

CC(=O)O[C@H]1C[C@@H](OC(C)=O)[C@@]2(C)CO[C@H]3[C@@H](O)[C@@]4(C)C5=C(C)[C@H](c6ccoc6)C[C@@H]5OCC[C@@H]4[C@]1(C)[C@@H]32
inhibition [2]: inactive | Activity [4]: Non-Toxic

CC(=O)O[C@H]1C[C@@H](OC(C)=O)[C@@]2(C)CO[C@H]3[C@@H](O)[C@@]4(C)C5=CC[C@@H](c6ccoc6)[C@]5(C)OCC[C@@H]4[C@]1(C)[C@@H]32
inhibition [2]: inactive | Activity [4]: Non-Toxic

C/C=C(\C)C(=O)O[C@@H]1C[C@H](OC(C)=O)[C@]23CO[C@H](CO)[C@H]2[C@](C)([C@]24O[C@@]2(C)[C@H]2C[C@@H]4O[C@@H]4O[C@H](OC)C[C@]42O)[C@H](O)[C@@H]2OC[C@@]1(C(=O)OC)[C@H]23
inhibition [2]: inactive | Activity [4]: Non-Toxic

C/C=C(\C)C(=O)O[C@H]1C[C@@H](OC(C)=O)[C@@]2(C)CO[C@H]3[C@@H](O)[C@@](C)(C4=C(C)[C@H](c5ccoc5)CC4=O)[C@H](C(=O)CO)[C@]1(C)[C@@H]32
inhibition [2]: inactive | Activity [4]: Non-Toxic

C/C=C(\C)C(=O)O[C@H]1C[C@@H](OC(C)=O)[C@@]2(C)CO[C@H]3[C@@H](O)[C@@]4(C)C5=C(C)[C@H](c6ccoc6)C[C@@H]5O[C@@H](O)C[C@@H]4[C@]1(C)[C@@H]32
inhibition [2]: inactive | Activity [4]: Non-Toxic

CC(=O)OCC[C@H]1[C@]2(C)C3=C(C)[C@H](c4ccoc4)C[C@H]3O[C@@H]2[C@@H]2OC[C@]3(C)[C@H](OC(C)=O)C[C@H](OC(C)=O)[C@@]1(C)[C@@H]23
inhibition [2]: inactive | Activity [4]: Non-Toxic

C/C=C(\C)C(=O)O[C@H]1C[C@@H](OC(C)=O)[C@@]2(C(=O)OC)CO[C@H]3[C@H]4O[C@]5(C)[C@H]6C[C@H](O[C@@H]7OC=C[C@@]76O)[C@]5(O)[C@@]4(C)[C@H](C(=O)CO)[C@]1(C)[C@@H]32
inhibition [2]: inactive | Activity [4]: Non-Toxic

C/C=C(\C)C(=O)O[C@H]1C[C@@H](OC(C)=O)[C@@]2(C)CO[C@H]3[C@@H](O)[C@@]4(C)C5=C(C)[C@H](C6=CCOC6=O)C[C@@H]5OCC[C@@H]4[C@]1(C)[C@@H]32
inhibition [2]: inactive | Activity [4]: Non-Toxic

C/C=C(\C)C(=O)O[C@H]1C[C@@H](OC(C)=O)[C@@]2(C)CO[C@H]3[C@@H](O)[C@@]4(C)C5=C(C)[C@H](c6ccoc6)C[C@@H]5O[C@@H](OCC)C[C@@H]4[C@]1(C)[C@@H]32
inhibition [2]: inactive | Activity [4]: Non-Toxic

C/C=C(\C)C(=O)O[C@H]1C[C@@H](OC(C)=O)[C@@]2(C)CO[C@H]3[C@H]4O[C@]5(C)[C@H]6C[C@H](O[C@@H]7O[C@@H](OC)C[C@@]76O)[C@]5(O)[C@@]4(C)[C@H](C(=O)CO)[C@]1(C)[C@@H]32
inhibition [2]: inactive | Activity [4]: Non-Toxic

CC(=O)O[C@@H]1C[C@H](OC(=O)c2ccccc2)[C@@]2(C)[C@H]3[C@@H](OC[C@]13C)[C@@H](O)[C@@]1(C)C3=C(C)[C@H](c4ccoc4)C[C@@H]3OCC[C@@H]12
inhibition [2]: inactive | Activity [4]: Non-Toxic

C/C=C(\C)C(=O)O[C@H]1C[C@@H](OC(C)=O)[C@@]2(C)CO[C@H]3[C@@H](O)[C@@]4(C)C5=C(C)[C@H](C6=CCOC6=O)C[C@@H]5O[C@@H](OCC)C[C@@H]4[C@]1(C)[C@@H]32
inhibition [2]: inactive | Activity [4]: Non-Toxic

C/C=C(\C)C(=O)O[C@@H]1C[C@H](OC(C)=O)[C@]23CO[C@H](CO)[C@H]2[C@](C)([C@]24O[C@@]2(C)[C@H]2C[C@@H]4O[C@@H]4O[C@H](OC)C[C@@]42O)[C@H](O)[C@@H]2OC[C@@]1(C(=O)OC)[C@H]23
inhibition [2]: inactive | Activity [4]: Non-Toxic

CO[C@H]1C[C@H]2[C@](C)(C3=C(C)[C@H](c4ccoc4)C[C@@H]3O1)[C@H](O)[C@@H]1OC[C@]3(C)[C@H](OC(C)=O)C[C@H](OC(=O)c4ccccc4)[C@@]2(C)[C@@H]13
inhibition [2]: inactive | Activity [4]: Non-Toxic

C/C=C(\C)C(=O)O[C@H]1C[C@@H](OC(C)=O)[C@@]2(C)CO[C@H]3[C@@H](O)[C@@]4(C)C5=C(C)[C@H](c6ccoc6)C[C@@H]5O[C@H](OC)C[C@@H]4[C@]1(C)[C@@H]32
fold change (FC) [1]: 3.4 | inhibition [2]: inactive | fold change (FC) [3]: 4.5 | Activity [4]: Non-Toxic

C/C=C(\C)C(=O)O[C@H]1C[C@@H](OC(C)=O)[C@@]2(C)CO[C@H]3[C@@H](O)[C@@]4(C)C5=C(C)[C@H](C6=CCOC6=O)C[C@@H]5O[C@@H](OC)C[C@@H]4[C@]1(C)[C@@H]32
inhibition [2]: inactive | Activity [4]: Non-Toxic

CC(=O)O[C@H]1C[C@@H](OC(C)=O)[C@@]2(C)CO[C@H]3[C@@H](O)[C@@]4(C)C5=CC[C@@H](c6ccoc6)[C@]5(C)CC[C@@H]4[C@]1(C)[C@@H]32 [DIACETYLVILASININ]
fold change (FC) [1]: 7.8 | inhibition [2]: inactive | fold change (FC) [3]: 18.3 | Activity [4]: Non-Toxic
